Assay results as given in article PMC6025042, “HSQC-TOCSY Fingerprinting-Directed Discovery of Antiplasmodial Polyketides from the Marine Ascidian-Derived Streptomyces sp. (USC-16018)” (Marine Drugs, 2018).
“And” between values parts separate entries of the source, which are not always exact repeats. Equal values may be shown once. Read-outs that look alike come from different tables or passages of the source.

What was measured:
HEK-293 Cells = experiment: cells; type: cell-based; conditions: for inhibition at 40 µM: read-out: % Inhibition at 40 µM, HEK-293 Cells; for IC50: value in brackets
Procedure: Human Embryonic Kidney cells (HEK293) were maintained in the Dulbecco’s Modified Eagle Medium (DMEM) medium supplemented with 10% FBS. The HEK293 cells were exposed to the compounds in TC-treated 384-wells plates (Falcon, Durham, NC, USA). […] After an additional 5–6 h incubation at standard conditions, the total fluorescence (excitation/emission: 530 nm/595 nm) was measured using the Envision plate reader (PerkinElmer, Waltham, MA, USA).
(§1) The raw data were normalized using the in-plate positive and negative controls to obtain the normalized % inhibition data, which was then used to calculate the IC50 values through a 4-parameter logistic curve fitting in the GraphPad Prism (Version 6.0, La Jolla, CA, USA). The experiments were carried out in two independent biological replicates, each consisting of two technical replicates.

P. falciparum 3D7 = experiment: antiplasmodial imaging assay, P. falciparum 3D7; type: cell-based, Plasmodium falciparum; conditions: for inhibition at 40 µM / % Inhibition at 40 µM, P. falciparum 3D7: chloroquine sensitive strain; for IC50: read-out: IC50, P. falciparum 3D7
Procedure: (§2) The parasites were subjected to two rounds of sorbitol synchronization before undergoing compound treatment. The ring stage parasites were exposed to the experimental compounds in 384-wells imaging microplates (PerkinElmer CellCarrier, Waltham, MA, USA), as previously described in Reference. The plates were incubated for 72h at 37 °C, 90% N2, 5% CO2, 5% O2, then the parasites were stained with 2-(4-amidinophenyl)-1H–indole-6-carboxamidine (DAPI), and imaged using an Opera QEHS micro-plate confocal imaging system (PerkinElmer, Waltham, MA, USA). The images were analysed as previously described in Reference.
as §1

P. falciparum Dd2 = experiment: antiplasmodial imaging assay, P. falciparum Dd2; type: cell-based, Plasmodium falciparum; conditions: for inhibition at 40 µM / % Inhibition at 40 µM, P. falciparum Dd2: chloroquine- and pyrimethamine-resistant strain; for IC50: read-out: IC50, P. falciparum Dd2
Procedure: as §2, §1

Plasmodium yoelii = conditions: cited from earlier work; for doses needed to clear the animals from the parasites: P. yoelii infected mice
K1 strain = test system: K1 strain; parameters: method as in PMID 27554496; conditions: read-out: IC50 against the K1 strain; cited from earlier work
[1] = parameters: method as in PMID 21454186; conditions: cited from earlier work
[2] = test system: chloroquine-sensitive and chloroquine-resistant Plasmodium falciparum strains; parameters: method as in PMID 14514358; conditions: chloroquine-sensitive and chloroquine-resistant strains equally; read-out: IC50, growth of P. falciparum; cited from earlier work
[3] = Homo sapiens, HEK293, 40 µM, 72 h
[4] = Plasmodium falciparum, 3D7, 40 µM, 72 h, read-out: % Inhibition at 40 µM, P. falciparum 3D7
[5] = Plasmodium falciparum, 3D7, 72 h, value in brackets
[6] = Plasmodium falciparum, DD2, 40 µM, 72 h, read-out: % Inhibition at 40 µM, P. falciparum Dd2
[7] = Plasmodium falciparum, DD2, 72 h, value in brackets
[8] = Plasmodium falciparum, 3D7, 72 h, read-out: % Inhibition at 40 µM, P. falciparum 3D7, 40 µM, 72 h
[9] = Plasmodium falciparum, DD2, 72 h, read-out: % Inhibition at 40 µM, P. falciparum Dd2, 40 µM, 72 h
[10] = 40 µM, 72 h, listed as Elaiophylin (2)
[11] = 72 h, value in brackets, listed as Elaiophylin (2)
[12] = 40 µM, 72 h, listed as Herbimycin G (1)

## COc1ccc2nc3cc(Cl)ccc3c(Nc3cc(CN4CCCC4)c(O)c(CN4CCCC4)c3)c2n1 [Pyronaridine]
HEK-293 Cells; [3]
  inhibition at 40 µM: 98.7%
HEK-293 Cells; Homo sapiens, HEK293, 72 h
  IC50: 2.83 µM
P. falciparum 3D7; [4]
  inhibition at 40 µM: 99.9%
P. falciparum 3D7; [5]
  IC50: 0.0074 µM
P. falciparum Dd2; [6]
  inhibition at 40 µM: 97.8%
P. falciparum Dd2; [7]
  IC50: 0.0083 µM

## COc1ccc(C[C@H](N)C(=O)N[C@H]2[C@@H](O)[C@H](n3cnc4c(N(C)C)ncnc43)O[C@@H]2CO)cc1 [Puromycin]
HEK-293 Cells; [3]
  inhibition at 40 µM: 103%
HEK-293 Cells; Homo sapiens, HEK293, 72 h
  IC50: 1.41 µM
P. falciparum 3D7; [4]
  inhibition at 40 µM: 99%
P. falciparum 3D7; [5]
  IC50: 0.149 µM
P. falciparum Dd2; [6]
  inhibition at 40 µM: 99.1%
P. falciparum Dd2; [7]
  IC50: 0.114 µM

## CCc1nc(N)nc(N)c1-c1ccc(Cl)cc1 [Pyrimethamine]
HEK-293 Cells; [3]
  inhibition at 40 µM: 68.4%
P. falciparum 3D7; [4]
  inhibition at 40 µM: 98.7%
P. falciparum 3D7; [5]
  IC50: 0.0047 µM
P. falciparum Dd2; [6]
  inhibition at 40 µM: 23.2%

## O=C1N[C@@H](Cc2ccccc2)C(=O)N2CCC[C@@H]12 [compound 4, Cyclo-L-Pro-L-Phe]
HEK-293 Cells; 40 µM, 72 h
  % Inhibition at 40 µM, HEK-293 Cells: no effect
P. falciparum 3D7; 40 µM, 72 h
  % Inhibition at 40 µM, P. falciparum 3D7: no effect
P. falciparum Dd2; 40 µM, 72 h
  % Inhibition at 40 µM, P. falciparum Dd2: no effect

## CCN(CC)CCCC(C)Nc1ccnc2cc(Cl)ccc12 (stereo not shown) [Chloroquine]
HEK-293 Cells; Homo sapiens, HEK293, 72 h
  inhibition at 40 µM: 40.9%
P. falciparum 3D7; [8]
  inhibition at 40 µM: 98.8%
P. falciparum 3D7; Plasmodium falciparum, 3D7, 72 h
  IC50: 0.01 µM
Plasmodium yoelii
  doses needed to clear the animals from the parasites: a single dose of chloroquine was sufficient to fully clear the animals from the parasites
P. falciparum Dd2; [9]
  inhibition at 40 µM: 96.5%
P. falciparum Dd2; Plasmodium falciparum, DD2, 72 h
  IC50: 0.0879 µM

## elaiophylin [compound 2]
HEK-293 Cells; 40 µM, 72 h
  % Inhibition at 40 µM, HEK-293 Cells: 101.9%
HEK-293 Cells; 72 h
  IC50: 1.45 µM
HEK-293 Cells; HEK293
  cytotoxicity (in words): highly cytotoxic
P. falciparum 3D7; 40 µM, 72 h
  % Inhibition at 40 µM, P. falciparum 3D7: > 75%
P. falciparum 3D7; [10]
  % Inhibition at 40 µM, P. falciparum 3D7: 96.6%
P. falciparum 3D7; [11]
  IC50: 0.778 µM
K1 strain
  IC50: 0.214 µM
P. falciparum Dd2; 40 µM, 72 h
  % Inhibition at 40 µM, P. falciparum Dd2: > 75%
P. falciparum Dd2; [10]
  % Inhibition at 40 µM, P. falciparum Dd2: 86.1%
P. falciparum Dd2; [11]
  IC50: 0.598 µM and 0.599 µM

## O=C1N[C@@H](Cc2ccc(O)cc2)C(=O)N2CCC[C@@H]12 [compound 6, Cyclo-L-Pro-L-Tyr]
HEK-293 Cells; 40 µM, 72 h
  % Inhibition at 40 µM, HEK-293 Cells: no effect
P. falciparum 3D7; 40 µM, 72 h
  % Inhibition at 40 µM, P. falciparum 3D7: no effect
P. falciparum Dd2; 40 µM, 72 h
  % Inhibition at 40 µM, P. falciparum Dd2: no effect

## COC1=C2C[C@@H](C)C[C@H](OC)[C@H](O)[C@@H](C)/C=C(\C)[C@H](OC(N)=O)[C@@H](OC)/C=C\C=C(/C)C(=O)NC(=CC1=O)C2=O [Geld, geldanamycin]
[1]
  water solubility (in words): low water solubility
[2]
  IC50: 0.02 µM

## CC(C)[C@@H]1NC(=O)[C@@H]2CCCN2C1=O [compound 5, Cyclo-L-Pro-L-Val]
HEK-293 Cells; 40 µM, 72 h
  % Inhibition at 40 µM, HEK-293 Cells: no effect
P. falciparum 3D7; 40 µM, 72 h
  % Inhibition at 40 µM, P. falciparum 3D7: no effect
P. falciparum Dd2; 40 µM, 72 h
  % Inhibition at 40 µM, P. falciparum Dd2: no effect

## CO[C@H]1[C@@H](OC)C[C@H](C)[C@@H](OC)C2=C[C@@H](O)C[C@@H](NC(=O)/C(C)=C/C=C\[C@H](OC)[C@@H](OC(N)=O)/C(C)=C/[C@@H]1C)C2=O [compound 1, herbimycin G]
HEK-293 Cells; 40 µM, 72 h
  % Inhibition at 40 µM, HEK-293 Cells: no effect
HEK-293 Cells; HEK293
  cytotoxicity (in words): no cytotoxicity
P. falciparum 3D7; 40 µM, 72 h
  % Inhibition at 40 µM, P. falciparum 3D7: > 75%
P. falciparum 3D7; [12]
  % Inhibition at 40 µM, P. falciparum 3D7: 77.2%
P. falciparum 3D7; 3D7 and Dd2 strains
  antiplasmodial activity (in words): weak antiplasmodial activity
P. falciparum 3D7; [8]
  inhibition at 40 µM: 77%
P. falciparum Dd2; [12]
  % Inhibition at 40 µM, P. falciparum Dd2: 81.7%
P. falciparum Dd2; [9]
  inhibition at 40 µM: > 75%

## C[C@H]1[C@@H](O)O[C@@H]2O[C@@]3(C)CC[C@H]4[C@H](C)CC[C@@H]1[C@@]24OO3 [Dihydroartemisinin]
HEK-293 Cells; [3]
  inhibition at 40 µM: 37.9%
P. falciparum 3D7; [4]
  inhibition at 40 µM: 99.9%
P. falciparum 3D7; [5]
  IC50: 0.0004 µM
P. falciparum Dd2; [6]
  inhibition at 40 µM: 98%
P. falciparum Dd2; [7]
  IC50: 0.0006 µM

## C=CCNC1=C2C[C@@H](C)C[C@H](OC)[C@H](O)[C@@H](C)/C=C(\C)[C@H](OC(N)=O)[C@@H](OC)/C=C\C=C(/C)C(=O)NC(=CC1=O)C2=O [17-AAG, 17-N-allylamino-17-demethoxygeldanamycin]
Plasmodium yoelii
  doses needed to clear the animals from the parasites: a second dose of 17-AAG was needed
Plasmodium yoelii; intra-peritoneal, doses of 7.2 mg/kg
  efficacy against Plasmodium yoelii in mouse models: effective against Plasmodium yoelii in mouse models
Plasmodium yoelii; treated mice reinfected with P. yoelii
  time to complete clearance of parasitemia after reinfection: 9 days

## C[C@H]1[C@H](OC(=O)CCC(=O)O)O[C@@H]2O[C@@]3(C)CC[C@H]4[C@H](C)CC[C@@H]1[C@@]24OO3 [Artesunate]
HEK-293 Cells; [3]
  inhibition at 40 µM: 50.6%
P. falciparum 3D7; [4]
  inhibition at 40 µM: 99.6%
P. falciparum 3D7; [5]
  IC50: 0.0009 µM
P. falciparum Dd2; [6]
  inhibition at 40 µM: 98.4%
P. falciparum Dd2; [7]
  IC50: 0.0013 µM

## CC(C)C[C@@H]1NC(=O)[C@@H]2CCCN2C1=O [compound 3, Cyclo-L-Pro-L-Leu]
HEK-293 Cells; 40 µM, 72 h
  % Inhibition at 40 µM, HEK-293 Cells: no effect
P. falciparum 3D7; [4]
  inhibition at 40 µM: 45.9%
P. falciparum Dd2; [6]
  inhibition at 40 µM: 39%
